{"source": "ChEMBL document CHEMBL1140125", "about": "“Purity-activity relationships of natural products: the case of anti-TB active ursolic acid” (2008)", "key": {"[1]": {"tested_on": "Mycobacterium tuberculosis", "test": "Antimycobacterial activity against Mycobacterium tuberculosis H37Rv ATCC 27294 after 7 days by microplate Alamar blue assay", "format": "functional", "conditions": "168 h"}, "[2]": {"tested_on": "Mycobacterium tuberculosis", "test": "Antimycobacterial activity against Mycobacterium tuberculosis H37Rv GFP after 7 days by green fluorescent microplate assay", "format": "functional", "conditions": "168 h"}}, "data": [{"smiles": "C=C(C)[C@@H]1CC[C@]2(C(=O)O)CC[C@]3(C)[C@H](CC[C@@H]4[C@@]5(C)CC[C@H](O)C(C)(C)[C@@H]5CC[C@]43C)[C@@H]12", "note": "[BETULINIC ACID]", "values": [{"measurement": "MIC", "setting": "[1]", "value": "> 128", "unit": "µg/mL"}]}, {"smiles": "CC1(C)CC[C@]2(C(=O)O)CC[C@]3(C)C(=CC[C@@H]4[C@@]5(C)CC[C@H](O)C(C)(C)[C@@H]5CC[C@]43C)[C@@H]2C1", "note": "[OLEANOLIC_ACID]", "values": [{"measurement": "MIC", "setting": "[1]", "value": 100, "unit": "µg/mL"}]}, {"smiles": "C[C@H]1[C@H](C)CC[C@]2(C(=O)O)CC[C@]3(C)C(=CC[C@@H]4[C@@]5(C)CC[C@H](O)C(C)(C)[C@@H]5CC[C@]43C)[C@H]12", "note": "[URSOLIC ACID]", "values": [{"measurement": "MIC", "setting": "[2]", "value": "> 100", "unit": "µg/mL"}, {"measurement": "MIC", "setting": "[1]", "value": "> 256", "unit": "µg/mL"}]}]}
